Experimental findings from ChEMBL document CHEMBL5550210, “Discovery of Novel α,β-Unsaturated Amide Derivatives as Candidate Antifungals to Overcome Fungal Resistance” (J Med Chem, 2024) are described below.

Data set [1] relates to Candida albicans. The data set can be described thus: Antifungal activity against Candida albicans CPCC400616 assessed as inhibition of fungal growth by CLSI protocol based microdilution method. The class given is functional.
Data set [2] deals with Candida albicans. The data set can be described thus: Antifungal activity against Candida albicans SC5314 assessed as inhibition of fungal growth by CLSI protocol based microdilution method. The data set is classed as functional.
The subject of data set [3] is Candida parapsilosis. The data set can be described thus: Antifungal activity against Candida parapsilosis ATCC 22019 assessed as inhibition of fungal growth by CLSI protocol based microdilution method. The data set is classed as functional. The note with it: Lodderomyces parapsilosis.
Data set [4] has as its system Nakaseomyces glabratus. Description: Antifungal activity against Candida glabrata assessed as inhibition of fungal growth by CLSI protocol based microdilution method. The data set is classed as functional.
The test system of data set [5] is Pichia kudriavzevii. The data set can be described thus: Antifungal activity against Candida krusei AS 2.1045 assessed as inhibition of fungal growth by CLSI protocol based microdilution method. The class given is functional.
Data set [6] concerns Candida tropicalis. The data set can be described thus: Antifungal activity against Candida tropicalis CGMCC 2.3739 assessed as inhibition of fungal growth by CLSI protocol based microdilution method. The data set is classed as functional.
Data set [7] relates to Cryptococcus neoformans. Description: Antifungal activity against Cryptococcus neoformans CGMCC2.3161 assessed as inhibition of fungal growth by CLSI protocol based microdilution method. The class given is functional.
Data set [8] has as its system Aspergillus fumigatus. The data set can be described thus: Antifungal activity against Aspergillus fumigatus CGMCC 3.7795 assessed as inhibition of fungal growth by CLSI protocol based microdilution method. The class given is functional.
A short description of data set [9]: Half life in mouse plasma measured at 180 mins. The class given is ADME, cell-free.
Data set [10] has as its system Candida albicans. The data set can be described thus: Antifungal activity against fluconazole-resistant Candida albicans CaR assessed as inhibition of fungal growth by CLSI based microdilution method. The data set is classed as functional.
Data set [11] concerns Candida albicans. The data set can be described thus: Antifungal activity against fluconazole-resistant Candida albicans 17 assessed as inhibition of fungal growth by CLSI based microdilution method. The class given is functional.
Data set [12] relates to Candida albicans. Description: Antifungal activity against fluconazole-resistant Candida albicans 632 assessed as inhibition of fungal growth by CLSI based microdilution method. The class given is functional.
Data set [13] has as its system Candida albicans. The data set can be described thus: Antifungal activity against fluconazole-resistant Candida albicans 904 assessed as inhibition of fungal growth by CLSI based microdilution method. The class given is functional.
The subject of data set [14] is Candida albicans. The data set can be described thus: Antifungal activity against fluconazole-resistant Candida albicans 901 assessed as inhibition of fungal growth by CLSI based microdilution method. The class given is functional.
Data set [15] in a line: Metabolic stability in mouse liver microsomes assessed as half life. The class given is ADME, Microsome.
Data set [16] is described as follows: Stability in mouse plasma assessed as parent compound remaining measured at 180 mins. The class given is ADME, cell-free. The note with it: read-out: Stability.
Data set [17] relates to Candida albicans. Description: Antifungal activity against Candida albicans assessed as inhibition of fungal growth by CLSI protocol based microdilution method. The class given is functional.
Data set [18] concerns Candida albicans. Description: Fungicidal activity against Candida albicans assessed as inhibition of fungal growth measured after 48 hrs by CLSI protocol based microdilution method. The class given is functional.
Data set [19] concerns the target T1, Lanosterol 14-alpha demethylase (Candida albicans (strain SC5314 / ATCC MYA-2876) (Yeast), UniProt P10613). The data set can be described thus: Inhibition of CYP51 in Candida albicans SC5314 assessed as reduction in ergosterol content at 0.031 ug/ml incubated for 24 hrs by GC-MS analysis relative to control. The note with it: at 0.031 µg/mL.
Data set [20] deals with T1, Lanosterol 14-alpha demethylase. The data set can be described thus: Inhibition of CYP51 in Candida albicans SC5314 assessed as increase in obtusifoliol level at 0.031 ug/ml incubated for 24 hrs by GC-MS analysis relative to control. The note with it: at 0.031 µg/mL.
Data set [21] shares this target. The data set can be described thus: Inhibition of CYP51 in Candida albicans SC5314 assessed as increase in lanosterol level at 0.031 ug/ml incubated for 24 hrs by GC-MS analysis relative to control. The note with it: at 0.031 µg/mL.
For data set [22] the target is unchanged. The data set can be described thus: Inhibition of CYP51 in Candida albicans SC5314 assessed as increase in eburicol level at 0.031 ug/ml incubated for 24 hrs by GC-MS analysis relative to control. As to conditions: at 0.031 µg/mL.
The test system of data set [23] is Candida albicans. The data set can be described thus: Antifungal activity against Candida albicans SC5314 assessed as fungal cell membrane injury at 16 ug/ml incubated for 24 hrs by transmission electron microscopic analysis. The note with it: dose 16.0 µg/ml. The class given is functional, organism-based.
Data set [24] concerns Candida albicans. Description: Antifungal activity against Candida albicans SC5314 assessed as leakage of endogenous substances at 16 ug/ml incubated for 24 hrs by transmission electron microscopic analysis. The data set is classed as functional, organism-based. The note with it: dose 16.0 µg/ml.

Values after ≈ are worked out from the molar mass of the structure shown. Active and inactive are the calls of the source. No cut-off for these calls is given here.

T1 sequence (P10613 whole entry): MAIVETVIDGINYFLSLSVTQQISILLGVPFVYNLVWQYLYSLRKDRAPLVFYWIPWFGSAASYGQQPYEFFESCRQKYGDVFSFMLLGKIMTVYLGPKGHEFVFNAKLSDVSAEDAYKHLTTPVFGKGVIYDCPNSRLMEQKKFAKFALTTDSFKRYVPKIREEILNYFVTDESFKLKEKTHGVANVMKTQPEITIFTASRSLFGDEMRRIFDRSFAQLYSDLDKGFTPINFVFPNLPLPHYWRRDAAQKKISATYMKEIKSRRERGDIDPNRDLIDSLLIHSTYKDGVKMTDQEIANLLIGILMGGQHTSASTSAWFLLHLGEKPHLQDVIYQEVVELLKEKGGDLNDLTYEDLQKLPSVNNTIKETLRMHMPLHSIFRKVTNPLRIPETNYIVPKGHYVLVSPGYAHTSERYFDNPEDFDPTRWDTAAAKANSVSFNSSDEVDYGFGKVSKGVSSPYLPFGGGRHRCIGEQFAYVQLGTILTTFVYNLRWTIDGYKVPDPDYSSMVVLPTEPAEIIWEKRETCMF

On to `O=c1ccc2ccc(COC(Cn3ccnc3)c3ccc(Cl)cc3Cl)cc2o1` (configuration not stated), for which the MIC in data set [1] came to 0.06 µg/mL (≈ 0.144 µM); in data set [2], 0.03 µg/mL (≈ 0.0722 µM); in [3] it was 0.5 µg/mL (≈ 1.2 µM); in data set [4], 0.5 µg/mL (≈ 1.2 µM); in [5], 2 µg/mL (≈ 4.82 µM); in data set [6], 0.25 µg/mL (≈ 0.602 µM). Besides, the MIC in data set [7] was determined as 2 µg/mL (≈ 4.82 µM); in [8], 1 µg/mL (≈ 2.41 µM); in [10], 1 µg/mL (≈ 2.41 µM); in data set [11], 4 µg/mL (≈ 9.63 µM); in [12], 4 µg/mL (≈ 9.63 µM); in [13], 1 µg/mL (≈ 2.41 µM). Moreover, the MIC in data set [14] stood at 4 µg/mL (≈ 9.63 µM). Besides, in data set [9], the half-life was > 6 h.

For the compound `OC(Cn1cncn1)(Cn1cncn1)c1ccc(F)cc1F` [FLUCONAZOLE], the MIC was determined as 4 µg/mL (≈ 13.1 µM) in data set [1]; 0.5 µg/mL (≈ 1.63 µM) in [2]; 4 µg/mL (≈ 13.1 µM) in data set [3]; 32 µg/mL (≈ 104 µM) in data set [4]; 32 µg/mL (≈ 104 µM) in data set [5]; 2 µg/mL (≈ 6.53 µM) in data set [6]. Besides, the MIC was 4 µg/mL (≈ 13.1 µM) in data set [7]; > 128 µg/mL in data set [8]; > 128 µg/mL in data set [10]; > 128 µg/mL in [11]; > 128 µg/mL in [12]; > 128 µg/mL in [13]. In addition, the MIC in data set [14] and in [17] was > 128 µg/mL in each case. The half-life in data set [15] is > 2 h; in data set [9] it was > 6 h. The remaining at 3 h in data set [16] turned out to be 116%. Besides, in data set [18], the MFC was > 128 µg/mL. For the same compound, the “inhibition (INH)” value in data set [19] is recorded as 48.4%; in [20], “Active”; in [21] it was “Active”; in data set [22], “Active”. For the same compound, the result in data set [23] and in data set [24] was Active.

For the compound `Clc1ccc(COC(Cn2ccnc2)c2ccc(Cl)cc2Cl)c(Cl)c1` (configuration not stated) [MICONAZOLE], the MIC in data set [1] came out at 0.25 µg/mL (≈ 0.601 µM); in data set [2] it was 0.03 µg/mL (≈ 0.0721 µM); in data set [3] it was 0.25 µg/mL (≈ 0.601 µM); in [4] it was 0.5 µg/mL (≈ 1.2 µM); in data set [5], 0.5 µg/mL (≈ 1.2 µM); in [6] it was 1 µg/mL (≈ 2.4 µM). Also, the MIC in data set [7] is 0.25 µg/mL (≈ 0.601 µM); in [8], 2 µg/mL (≈ 4.81 µM). In addition, the half-life in data set [9] is > 6 h.
